PubChem BioAssay (NCI)
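These data come from cells grown in 96-well plates and exposed to compound for 48 hours at five concentrations. GI50: concentration for 50% inhibition of growth. TGI: concentration producing complete growth inhibition.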

Legend:
Experiment in all cases: growth of human tumour cells (NCI), 48 h
[1] = test system: HCT-116 colon
[2] = test system: SF-295 CNS
[3] = test system: SK-OV-3 ovarian
[4] = test system: 786-0 renal
[5] = test system: U251 CNS
[6] = test system: RPMI-8226 leukemia
[7] = test system: SK-MEL-28 melanoma
[8] = test system: MALME-3M melanoma
[9] = test system: BT-549 breast
[10] = test system: PC-3 prostate
[11] = test system: HT29 colon
[12] = test system: HOP-92 NSCLC
[13] = test system: RXF 393 renal
[14] = test system: SR leukemia
[15] = test system: EKVX NSCLC
[16] = test system: HOP-62 NSCLC
[17] = test system: SF-539 CNS
[18] = test system: CCRF-CEM leukemia
[19] = test system: SN12C renal
[20] = test system: HS 578T breast
[21] = test system: SK-MEL-5 melanoma
[22] = test system: SK-MEL-2 melanoma
[23] = test system: SW-620 colon
[24] = test system: HCT-15 colon
[25] = test system: LOX IMVI melanoma
[26] = test system: K-562 leukemia
[27] = test system: MOLT-4 leukemia
[28] = test system: HCC-2998 colon
[29] = test system: KM12 colon

Compound: CC(C)c1ccc(NC(=O)Cc2ccc(Nc3ncnc4cc(-c5cnn(CCN(C)C)c5)ccc34)cc2)cc1
- GI50 [1]: 1190 nM
- TGI [1]: 2700 nM
- GI50 [2]: 2470 nM
- TGI [2]: > 10000 nM
- GI50 [3]: 1610 nM
- TGI [3]: 4810 nM
- GI50 [4]: 1630 nM
- TGI [4]: 3960 nM
- GI50 [5]: 1700 nM
- TGI [5]: 4500 nM
- GI50 [6]: 1950 nM
- TGI [6]: 4750 nM
- GI50 [7]: > 10000 nM
- TGI [7]: > 10000 nM
- GI50 [8]: > 10000 nM
- TGI [8]: > 10000 nM
- GI50 [9]: 3960 nM
- TGI [9]: > 10000 nM
- GI50 [10]: 1310 nM
- TGI [10]: 2920 nM
- GI50 [11]: 1400 nM
- TGI [11]: 3490 nM
- GI50 [12]: 3440 nM
- TGI [12]: > 10000 nM
- GI50 [13]: 1300 nM
- TGI [13]: 3430 nM
- GI50 [14]: 107 nM
- TGI [14]: 2420 nM
- GI50 [15]: 2420 nM
- TGI [15]: 9230 nM
- GI50 [16]: > 10000 nM
- TGI [16]: > 10000 nM
- GI50 [17]: 571 nM
- TGI [17]: 2390 nM
- GI50 [18]: 52.2 nM
- TGI [18]: 4680 nM
- GI50 [19]: 1340 nM
- TGI [19]: 3050 nM
- GI50 [20]: 795 nM
- TGI [20]: 4660 nM
- GI50 [21]: > 10000 nM
- TGI [21]: > 10000 nM
- GI50 [22]: > 10000 nM
- TGI [22]: > 10000 nM
- GI50 [23]: 1180 nM
- TGI [23]: 2760 nM
- GI50 [24]: 1550 nM
- TGI [24]: 4080 nM
- GI50 [25]: 1360 nM
- TGI [25]: 3370 nM
- GI50 [26]: 2120 nM
- TGI [26]: 5940 nM
- GI50 [27]: 1430 nM
- TGI [27]: 4730 nM
- GI50 [28]: 1660 nM
- TGI [28]: 3420 nM
- GI50 [29]: 64.1 nM
- TGI [29]: 1390 nM
